# Laboratory results published in patent publication US12545695B2, “Compounds for inhibiting neovascularization factors and use thereof” (UNIST (ULSAN NATIONAL INSTITUTE OF SCIENCE AND TECHNOLOGY), priority 2019, dated 2026).
# Assays:
# HIF-1α [1] = assay: Western blot of HIF-1α in Muller cells (MIO-M1) under hypoxia; format: cell-based; settings: MIO-M1, hypoxic chamber 1% O2 (FIG. 8)
# Experimental: (§1) Muller cells (MIO-M1) were cultured at 37° C. and 5% CO2, and DMEM-low glucose (Sigma) including 10% fetal bovine serum and 1% penicillin & streptomycin was used as the medium. A hypoxic chamber was maintained at 37° C., 5% CO2 and 1% O2.
# Muller cells (MIO-M1) were seeded in the number of 4×10^5 on a 60-millimeter plate and cultured in 3 ml of medium for 24 hours. The next day, the cells were treated with SMX, a mitochondrial heat shock protein 90 (TRAP1) inhibitor according to the concentrations shown in the drawing and cultured in a hypoxic chamber for 6 hours. Whole cell lysates were made from the cultured cells, electrophoresed, transferred to a PVDF membrane, and then treated with a primary antibody at 4° C. for 18 hours. The next day, the whole cell lysates were treated with a secondary antibody for 1 hour and protein expression was analyzed using a western blotting detection reagent.
# as §1, with “O2. […] The next day, the whole cell lysates were treated with a secondary antibody for 1 hour and protein expression was analyzed using a western blotting detection reagent.” for “O2.”
# HIF1-α = assay: Drug activity in MIO-M1-HRE/GFP cell line under hypoxia (GFP fluorescence); format: cell-based; settings: 1% O2, 24 hours (FIG. 25)
# Experimental: After MIO-M1 Muller cells were transfected with a 5HRE/GFP plasmid (Addgene #46926) (jetPrime kit), plasmid-transfected cells were selected using 1 mg/ml G418 (neomycin) which is a selection marker. A stable cell line was manufactured by selecting cells that were growing in the form of a colony from single cells. The manufactured stable MIO-M1-HRE/GFP cell line was aliquoted into 96 wells and treated with a drug at each concentration the next day. After the cell line was exposed to a hypoxic environment (1% O2) for 24 hours, GFP (Ex/Em: 488/507) fluorescence signals were measured by a SYNERGY NEO microplate reader (BioTek Instrument). As a negative control, DMSO, which is a solvent in which a drug was dissolved, was used, and calculation was performed based on the negative control as 100%.
# HIF-1α [2] = assay: Western blot of HIF-1α in ARPE-19 cells under hypoxia; format: cell-based, Human; settings: ARPE-19, 1 μM, 1% oxygen, 6 hours (FIG. 26)
# Experimental: Human retinal pigmented epithelium ARPE-19 cells were seeded in the number of 3×10^5 on a 60-millimeter plate, and cultured at 37° C. and 5% CO2, and DMEM/F-12 including 10% fetal bovine serum and 1% penicillin & streptomycin was used as the medium for 2 days. Two days later, the cells were treated with DMSO (0.5%), SMx, SB-U005, SB-U009, SB-U011 and SB-U012 at 1 μM and cultured under 1% oxygen conditions in a hypoxia chamber for 6 hours, and then a western blot experiment was performed.
# After the cell culture experiment was completed, the cell culture solution was removed, the cells was washed once with cold PBS, and a RIPA solution (50 mM Tris-HCl pH 7.4, 150 mM NaCl, 0.25% Na-deoxycholate, 1% NP-40) was added thereto to harvest cells using a cell scraper. After the cells were sufficiently lysed, a 6× sample buffer was mixed with a cell suspension obtained by low-temperature centrifugation, the resulting mixture was boiled at 95° C. for 5 minutes, and then 12% SDS-PAGE was performed. […]
# Thereafter, the membrane was washed twice with TBS-T (Tris-buffered saline+Tween-20), and then reacted with a secondary antibody (diluted at 1:5,000) at room temperature for 1 hour. After the membrane was washed twice with TBS-T, changes in protein expression level were measured by a Chemidoc system (GE, LAS 4000) using a Clarity Western ECL substrate (Bio-Rad).
compound,measurement,setting,value
COC1=C(OC)C(=O)C(CCCCCCCCCC[P+](c2ccccc2)(c2ccccc2)c2ccccc2)=C(C)C1=O [SMx],expression of HIF-1α,HIF-1α [1],suppressed
same,suppression of neovascularization factor HIF1-α (HRE/GFP signal),HIF1-α,suppressed
same,suppression of HIF-1α,HIF-1α [2],effectively suppressed
